In brackets after ≈: the same amount, converted by molar mass. Read-outs that look alike come from different tables or passages of the source.
Test system: single drug resistant strains of M. tuberculosis
Assay: microbe, parasite or virus in culture
Format: cell-based
Conditions: for MIC: Mycobacterium tuberculosis

Compound	susceptibility of singly resistant strains	MIC (read-out: MIC, EMB-R)	MIC (read-out: MIC, INH-R)	MIC (read-out: MIC, KM-R)	MIC (read-out: MIC, RMP-R)	MIC (read-out: MIC, CS-R)	MIC (read-out: MIC, PZA-R)	MIC (read-out: MIC, TAC-R)
CCOC(=O)Nc1cc(NC(C)CCCN(CC)CC)c2nc(-c3ccccc3)c(-c3ccccc3)nc2n1 (stereo not shown) [SRI-3072, [8-(4-Diethylamino-1-methyl-butylamino)-2,3-diphenyl-pyrido[2,3-b]pyrazin-6-yl]-carbamic acid ethyl ester]	uniformly susceptible	≤ 0.1 µg/mL	0.78 µg/mL (≈ 1.48 µM)	≤ 0.1 µg/mL	≤ 0.1 µg/mL	–	–	–
CCOC(=O)Nc1cc2c(c(N)n1)N=C(c1ccccc1)CCN2 [SRI-7614, (1-Amino-8-phenyl-6,7-dihydro-5H-2,5,9-triaza-benzocyclohepten-3-yl)-carbamic acid ethyl ester]	uniformly susceptible	3.12 µg/mL (≈ 9.59 µM)	6.25 µg/mL (≈ 19.2 µM)	6.25 µg/mL (≈ 19.2 µM)	3.12 µg/mL (≈ 9.59 µM)	3.12 µg/mL (≈ 9.59 µM)	3.12 µg/mL (≈ 9.59 µM)	3.12 µg/mL (≈ 9.59 µM)

Reference: patent US7718651B2, “Inhibitors of FtsZ and uses thereof” (priority 2002, dated 2010)
